In patent US11771765B2, “Light augmented treatment method” (The Procter & Gamble Company, priority 2019, dated 2023):

How the values were obtained:
C. albicans cells = assay: Candida albicans spot plating after Piroctone Olamine and 409 nm light (Table 4); format: cell-based; set-up: key to spot plated growth (score): +: a continuous fungal lawn; +/−: a lawn with breaks allowing the agar to show; −: 0 to 5 colonies
Method: Potentiation of Piroctone Olamine by light exposure is also observed in Candida albicans. […] Cells are then diluted as indicated in the left column, and spot plated. Resulting growth is then scored, as explained above.

M. furfur = M. furfur viability on mDixon agar plates after Piroctone Olamine and 409 nm light (Table 3); format: cell-based, Malassezia furfur; set-up: key to growth on mDixon agar plate (score): +: a continuous fungal lawn; +/−: a lawn with breaks allowing the agar to show; −: 0 to 5 colonies
Method: M. furfur is incubated for one hour with the indicated concentrations of Piroctone Olamine then a cell pellet of 4 OD*mL is collected by centrifugation so that most of the anti-fungal material has been removed. The cell pellet is suspended in 4.2 mL PBS and 1 mL samples are distributed to four 12 well plates and treated with light (409 nm, 1200 fc) for 1, 10 or 60 minutes or stored in the dark. Samples are processed as described previously with 600 uL diluted into 13 mL mDixon and 50 uL of the photolyzed cells are diluted into 50 uL of mDixon then three 40 uL+360 uL mDixon dilutions are prepared.
Where +=a continuous fungal lawn, +/−=a lawn with breaks allowing the agar to show, −=0 to 5 colonies
After the photolysis, 0.6 mL is added to 13 mL fresh mDixon and grown overnight but, in addition, 50 uL is added to 50 uL mDixon then that sample is diluted 3 more times 40 uL=>400 uL and 10 uL of each of the dilutions are plated in duplicate on mDixon agar plates.

How did the “spot plated growth (score)” value (C. albicans cells; 6 ppm, dilution 1:2, 15 minute 409 nm light) turn out when `Cc1cc(CC(C)CC(C)(C)C)n(O)c(=O)c1.NCCO` (stereo not drawn) [Piroctone Olamine, 1-Hydroxy-4-methyl-6-(2,4,4-trimethylpentyl)-2-pyridone monoethanolamine salt] was run?
Its value is “+”.

What about the “spot plated growth (score)” value (C. albicans cells; 6 ppm, dilution 1:2, Dark) of the same molecule?
Its value is “+”.

And the “spot plated growth (score)” value (C. albicans cells; 6 ppm, dilution 1:20, 15 minute 409 nm light)?
Its value is “+”.

What about the “spot plated growth (score)” value (C. albicans cells; 6 ppm, dilution 1:20, Dark) of the same molecule?
The value was “+”.

And the “spot plated growth (score)” value (C. albicans cells; 6 ppm, dilution 1:200, 15 minute 409 nm light)?
The value was “+/−”.

What about the “spot plated growth (score)” value (C. albicans cells; 6 ppm, dilution 1:200, Dark) of the same molecule?
Its value is “+/−”.

What about the “spot plated growth (score)” value (C. albicans cells; 6 ppm, dilution 1:2000, 15 minute 409 nm light) of the same molecule?
Its value is “+/−”.

What about the “spot plated growth (score)” value (C. albicans cells; 6 ppm, dilution 1:2000, Dark) of the same molecule?
Its value is “+/−”.

And the “growth with the addition of light” value (C. albicans cells; 12 and 24 ppm dose, 409 nm light 15 min)?
The value was “complete inhibition of growth”.

And the “spot plated growth (score)” value (C. albicans cells; 12 ppm, dilution 1:2, 15 minute 409 nm light)?
The value was “+”.

And the “spot plated growth (score)” value (C. albicans cells; 12 ppm, dilution 1:2, Dark)?
The value was “+”.

What about the “spot plated growth (score)” value (C. albicans cells; 12 ppm, dilution 1:20, 15 minute 409 nm light) of the same molecule?
Its value is “+/−”.

And the “spot plated growth (score)” value (C. albicans cells; 12 ppm, dilution 1:20, Dark)?
The value was “+”.

And the “spot plated growth (score)” value (C. albicans cells; 12 ppm, dilution 1:200, 15 minute 409 nm light)?
The value was “+/−”.

What about the “spot plated growth (score)” value (C. albicans cells; 12 ppm, dilution 1:200, Dark) of the same molecule?
Its value is “+/−”.

And the “spot plated growth (score)” value (C. albicans cells; 12 ppm, dilution 1:2000, 15 minute 409 nm light)?
The value was “− (0 to 5 colonies)”.

What about the “spot plated growth (score)” value (C. albicans cells; 12 ppm, dilution 1:2000, Dark) of the same molecule?
Its value is “+/−”.

What about the “spot plated growth (score)” value (C. albicans cells; 24 ppm, dilution 1:2, 15 minute 409 nm light) of the same molecule?
The value was “+”.

What about the “spot plated growth (score)” value (C. albicans cells; 24 ppm, dilution 1:2, Dark) of the same molecule?
Its value is “+”.

And the “spot plated growth (score)” value (C. albicans cells; 24 ppm, dilution 1:20, 15 minute 409 nm light)?
Its value is “+/−”.

And the “spot plated growth (score)” value (C. albicans cells; 24 ppm, dilution 1:20, Dark)?
Its value is “+”.

And the “spot plated growth (score)” value (C. albicans cells; 24 ppm, dilution 1:200, 15 minute 409 nm light)?
The value was “+/−”.

What about the “spot plated growth (score)” value (C. albicans cells; 24 ppm, dilution 1:200, Dark) of the same molecule?
The value was “+/−”.

And the “spot plated growth (score)” value (C. albicans cells; 24 ppm, dilution 1:2000, 15 minute 409 nm light)?
The value was “− (0 to 5 colonies)”.

What about the “spot plated growth (score)” value (C. albicans cells; 24 ppm, dilution 1:2000, Dark) of the same molecule?
Its value is “+/−”.

And the “effect of light on viable cells” value (M. furfur; 8 ppm)?
The value was “no effect”.

What about the “holding growth down overnight in the original samples” value (M. furfur; 8 ppm) of the same molecule?
Its value is “does not hold M. furfur growth down overnight”.

What about the “growth on mDixon agar plate (score)” value (M. furfur; 8 ppm 1 h, culture dilution 1:2, 409 nm light 1 min) of the same molecule?
The value was “+”.

And the “growth on mDixon agar plate (score)” value (M. furfur; 8 ppm 1 h, culture dilution 1:2, 409 nm light 10 min)?
The value was “+”.

What about the “growth on mDixon agar plate (score)” value (M. furfur; 8 ppm 1 h, culture dilution 1:2, 409 nm light 60 min) of the same molecule?
Its value is “+”.

What about the “growth on mDixon agar plate (score)” value (M. furfur; 8 ppm 1 h, culture dilution 1:2, Dark) of the same molecule?
Its value is “+”.

And the “growth on mDixon agar plate (score)” value (M. furfur; 8 ppm 1 h, culture dilution 1:20, 409 nm light 1 min)?
The value was “+”.

And the “growth on mDixon agar plate (score)” value (M. furfur; 8 ppm 1 h, culture dilution 1:20, 409 nm light 10 min)?
The value was “+”.

And the “growth on mDixon agar plate (score)” value (M. furfur; 8 ppm 1 h, culture dilution 1:20, 409 nm light 60 min)?
Its value is “+”.

What about the “growth on mDixon agar plate (score)” value (M. furfur; 8 ppm 1 h, culture dilution 1:20, Dark) of the same molecule?
Its value is “+”.

What about the “growth on mDixon agar plate (score)” value (M. furfur; 8 ppm 1 h, culture dilution 1:200, 409 nm light 1 min) of the same molecule?
Its value is “+/−”.

What about the “growth on mDixon agar plate (score)” value (M. furfur; 8 ppm 1 h, culture dilution 1:200, 409 nm light 10 min) of the same molecule?
Its value is “+/−”.

And the “growth on mDixon agar plate (score)” value (M. furfur; 8 ppm 1 h, culture dilution 1:200, 409 nm light 60 min)?
Its value is “+/−”.

What about the “growth on mDixon agar plate (score)” value (M. furfur; 8 ppm 1 h, culture dilution 1:200, Dark) of the same molecule?
The value was “+/−”.

What about the “growth on mDixon agar plate (score)” value (M. furfur; 8 ppm 1 h, culture dilution 1:2000, 409 nm light 1 min) of the same molecule?
Its value is “+/−”.

And the “growth on mDixon agar plate (score)” value (M. furfur; 8 ppm 1 h, culture dilution 1:2000, 409 nm light 10 min)?
The value was “+/−”.

What about the “growth on mDixon agar plate (score)” value (M. furfur; 8 ppm 1 h, culture dilution 1:2000, 409 nm light 60 min) of the same molecule?
Its value is “+/−”.

And the “growth on mDixon agar plate (score)” value (M. furfur; 8 ppm 1 h, culture dilution 1:2000, Dark)?
The value was “+/−”.

What about the “holding growth down overnight in the original samples” value (M. furfur; 16 and 32 ppm) of the same molecule?
The value was 16 and 32 ppm do.

And the fewer viable cells (M. furfur; 16 and 32 ppm, 1 minute of light exposure)?
The fewer viable cells was “about 10 fold”.

And the fewer cells (M. furfur; 16 and 32 ppm, longer light exposures)?
Its fewer cells is over 100 fold.

What about the “growth on mDixon agar plate (score)” value (M. furfur; 16 ppm 1 h, culture dilution 1:2, 409 nm light 1 min) of the same molecule?
The value was “+”.

What about the “growth on mDixon agar plate (score)” value (M. furfur; 16 ppm 1 h, culture dilution 1:2, 409 nm light 10 min) of the same molecule?
The value was “+/−”.

And the “growth on mDixon agar plate (score)” value (M. furfur; 16 ppm 1 h, culture dilution 1:2, 409 nm light 60 min)?
The value was “+/−”.

And the “growth on mDixon agar plate (score)” value (M. furfur; 16 ppm 1 h, culture dilution 1:2, Dark)?
The value was “+”.

What about the “growth on mDixon agar plate (score)” value (M. furfur; 16 ppm 1 h, culture dilution 1:20, 409 nm light 1 min) of the same molecule?
The value was “+/−”.

And the “growth on mDixon agar plate (score)” value (M. furfur; 16 ppm 1 h, culture dilution 1:20, 409 nm light 10 min)?
The value was “+/−”.

And the “growth on mDixon agar plate (score)” value (M. furfur; 16 ppm 1 h, culture dilution 1:20, 409 nm light 60 min)?
Its value is “+/−”.

What about the “growth on mDixon agar plate (score)” value (M. furfur; 16 ppm 1 h, culture dilution 1:20, Dark) of the same molecule?
Its value is “+”.

And the “growth on mDixon agar plate (score)” value (M. furfur; 16 ppm 1 h, culture dilution 1:200, 409 nm light 1 min)?
The value was “+/−”.

What about the “growth on mDixon agar plate (score)” value (M. furfur; 16 ppm 1 h, culture dilution 1:200, 409 nm light 10 min) of the same molecule?
Its value is “− (0 to 5 colonies)”.

And the “growth on mDixon agar plate (score)” value (M. furfur; 16 ppm 1 h, culture dilution 1:200, 409 nm light 60 min)?
The value was “− (0 to 5 colonies)”.

What about the “growth on mDixon agar plate (score)” value (M. furfur; 16 ppm 1 h, culture dilution 1:200, Dark) of the same molecule?
Its value is “+/−”.

And the “growth on mDixon agar plate (score)” value (M. furfur; 16 ppm 1 h, culture dilution 1:2000, 409 nm light 1 min)?
The value was “+/−”.

What about the “growth on mDixon agar plate (score)” value (M. furfur; 16 ppm 1 h, culture dilution 1:2000, 409 nm light 10 min) of the same molecule?
The value was “− (0 to 5 colonies)”.

And the “growth on mDixon agar plate (score)” value (M. furfur; 16 ppm 1 h, culture dilution 1:2000, 409 nm light 60 min)?
The value was “− (0 to 5 colonies)”.

What about the “growth on mDixon agar plate (score)” value (M. furfur; 16 ppm 1 h, culture dilution 1:2000, Dark) of the same molecule?
The value was “+/−”.

What about the “growth on mDixon agar plate (score)” value (M. furfur; 32 ppm 1 h, culture dilution 1:2, 409 nm light 1 min) of the same molecule?
Its value is “+”.

What about the “growth on mDixon agar plate (score)” value (M. furfur; 32 ppm 1 h, culture dilution 1:2, 409 nm light 10 min) of the same molecule?
Its value is “+/−”.

And the “growth on mDixon agar plate (score)” value (M. furfur; 32 ppm 1 h, culture dilution 1:2, 409 nm light 60 min)?
Its value is “+/−”.

And the “growth on mDixon agar plate (score)” value (M. furfur; 32 ppm 1 h, culture dilution 1:2, Dark)?
The value was “+”.

And the “growth on mDixon agar plate (score)” value (M. furfur; 32 ppm 1 h, culture dilution 1:20, 409 nm light 1 min)?
Its value is “+/−”.

And the “growth on mDixon agar plate (score)” value (M. furfur; 32 ppm 1 h, culture dilution 1:20, 409 nm light 10 min)?
The value was “+/−”.

What about the “growth on mDixon agar plate (score)” value (M. furfur; 32 ppm 1 h, culture dilution 1:20, 409 nm light 60 min) of the same molecule?
The value was “+/−”.

What about the “growth on mDixon agar plate (score)” value (M. furfur; 32 ppm 1 h, culture dilution 1:20, Dark) of the same molecule?
Its value is “+”.

And the “growth on mDixon agar plate (score)” value (M. furfur; 32 ppm 1 h, culture dilution 1:200, 409 nm light 1 min)?
The value was “+/−”.

What about the “growth on mDixon agar plate (score)” value (M. furfur; 32 ppm 1 h, culture dilution 1:200, 409 nm light 10 min) of the same molecule?
Its value is “+/−”.

What about the “growth on mDixon agar plate (score)” value (M. furfur; 32 ppm 1 h, culture dilution 1:200, 409 nm light 60 min) of the same molecule?
Its value is “− (0 to 5 colonies)”.

What about the “growth on mDixon agar plate (score)” value (M. furfur; 32 ppm 1 h, culture dilution 1:200, Dark) of the same molecule?
The value was “+/−”.

And the “growth on mDixon agar plate (score)” value (M. furfur; 32 ppm 1 h, culture dilution 1:2000, 409 nm light 1 min)?
Its value is “+/−”.

What about the “growth on mDixon agar plate (score)” value (M. furfur; 32 ppm 1 h, culture dilution 1:2000, 409 nm light 10 min) of the same molecule?
The value was “− (0 to 5 colonies)”.

What about the “growth on mDixon agar plate (score)” value (M. furfur; 32 ppm 1 h, culture dilution 1:2000, 409 nm light 60 min) of the same molecule?
Its value is “− (0 to 5 colonies)”.

And the “growth on mDixon agar plate (score)” value (M. furfur; 32 ppm 1 h, culture dilution 1:2000, Dark)?
The value was “+/−”.
